# Laboratory results from US11931347B2, “Method of screening for agents for differentiating stem cells” (MINERVA BIOTECHNOLOGIES CORPORATION, priority 2015, dated 2024).
# “Also recorded” adds a separate entry of the source.
# Experiments:
# [1] = tested on: OV-90 MUC1* negative ovarian cancer cells; test: cancer cell proliferation assay (Calcein); assay type: cell-based; conditions: 96 hours (FIG. 114)
# [2] = tested on: E-cadherin, fibronectin, vimentin and NF1 expression in naïve stem cells; test: RT-PCR of differentiation markers in treated naïve stem cells; assay type: cell-based, human
# Procedure: FIG. 161 is a graph of RT-PCR measurement of naïve stem cells that have been treated with compounds of the invention. The genes whose expression is measured are E-cadherin, which goes […] as cells undergo epithelial to mesenchymal transition, fibronectin and vimentin, which both increase as stem cells initiate differentiation and NF1, which is one of the first genes to increase when stem cells begin to differentiate down the neural lineage. […] E-cadherin is the opposite; it […] as cells become cancerous. […] Expression of metastatic marker E-cadherin was reduced and expression of differentiation markers fibronectin, vimentin and NF1 were increased (FIG. 162-FIG. 163). Novel compounds of the invention are highly specific. […] Although we discovered that NME1 dimers, NME7AB and NME7-X1 are all activating ligands of the MUC1* growth factor receptor and they bind to its extracellular domain, we have developed ample evidence that both NME7AB and NME7-X1 have other binding partners and can exert oncogenic effects, independent of MUC1*.
# [3] = tested on: human primed state stem cells; test: stem cell drug screening assay on primed state stem cells; assay type: cell-based; conditions: treated for 3 days, bFGF absent
# Procedure: The stem cell screening assay, was performed in both the presence and absence of the stem cell growth factors: NME7AB for growing naïve stem cells or FGF for growing primed stem cells. If the cognate growth factor was present, then the biological or small molecule would have to compete away the growth factor to get an effect. Therefore, we expected to see more of an effect when the growth factor, FGF for primed stem cells or NME7AB or NME1 dimers for naïve stem cells, was absent. The effect of the compounds on stem cells was visually determined and compounds were ranked 0-4, with 4 being the greatest effect and 0 being no observable effect. The major effect that was observed was a change from pluripotent stem cell morphology, which is a cobblestone pattern of small round cells with a large nucleus to cytoplasm ratio, to that of differentiating stem cells, which are elongated, large and flattened cells with a smaller nucleus to cytoplasm ratio. […] The compounds were added to a final concentration of 6 uM to either naïve state stem cells or primed state stem cells. In this particular case, the naïve state stem cells were maintained in a naïve state by culturing in a media containing NME7AB or NME1 dimers. However, other methods such as 2i and 5i (Silva et al., 2008, Nichols and Smith, 2009, Theunissen et al., 2014)] can be used to maintain stem cells in a more naïve state. In this case primed state stem cells were cultured in bFGF over a layer of MEFs, although it is known that any bFGF containing media will maintain stem cells in the primed state.
# Stem cells whether embryonic or induced pluripotent stem (iPS) cells were cultured in a minimal, serum-free media that contained human recombinant bFGF at a concentration of 8 ng/mL. The stem cells were plated over a layer of inactivated mouse embryonic fibroblasts, aka MEFs, which secrete additional uncharacterized growth factors and cytokines.
# Human naïve state and primed stem cells were cultured in parallel for at least 5 passages to guarantee normal differentiation-free growth. The stem cells were plated in 12-well cell culture plates with 50,000 cells per well. Cells were cultured in their respective media, either bFGF media or NME7AB media for 24 hours. Media was then removed and replaced with media devoid of bFGF or NME7AB, when indicated. Agents being tested for their ability to induce differentiation of naïve stem cells were added to the media at the concentrations indicated. After 72 hours, photographs were taken see FIGS. 1-10.
# Human naïve state and primed stem cells were cultured in parallel for at least 5 passages to guarantee normal differentiation-free growth. The stem cells were plated in 12-well cell culture plates with 50,000 cells per well. Cells were cultured in their respective media, either bFGF media or NME7AB media for 24 hours. Media was then removed and replaced with media devoid of bFGF or NME7AB. […] Media was changed after 48 hours and replaced with fresh media containing the BRD4 inhibitors. After 4 days the experiment was stopped. Photographs were taken and cell pellets collected for further analysis, see FIGS. 11-16.
# [4] = tested on: SK-OV-3 MUC1* positive ovarian cancer cells; test: cancer cell proliferation assay (Calcein); assay type: cell-based; conditions: 96 hours (FIG. 112)
# Procedure: Small molecule inhibition of cancer cell proliferation studies were also performed on several cancer sub-types. […] The small molecules of the invention had the most robust effect on T47D breast cancer cells, which are highly positive for MUC1* growth factor receptor, and its activating ligands NME7AB and NME7-X1. […] For the cancer cell proliferation experiment cancer cells were plated at constant densities (6000 cells/well) into a 96-well White-walled/Clear-bottom Tissue Culture Treated plate (Corning Incorporated, Big Flats, N.Y.). Small molecule analogs are added at T=24 hours in media with 2% FBS. […] […] Calcein fluorescence (final concentration 0.5 uM) is used to assess cell viability. Cancer cell fluorescence is measured in a TECAN SAFIRE^2 spectrophotometer plate reader. The plate is then imaged using an Olympus IX71 fluorescence imaging microscope and montage of the resulting images are assembled using ImageJ.
structure (smiles),measurement,setting,value
"Cc1sc2c(c1C)C(c1ccc(Cl)cc1)=N[C@@H](CC(=O)OC(C)(C)C)c1nnc(C)n1-2 [JQ1+, JQ1]",effect on growth of OV-90 cells,[1],neither the compounds of the invention nor JQ1 or SU11274 had any apparent effect
same,up-regulation of markers of differentiation in naïve stem cells (RT-PCR),[2],did not cause up-regulation of markers of differentiation
same,effect on primed stem cell colony size and morphology,[3]; listed as JQ1(+),modest effect on the size of primed stem cell colonies; also recorded: some abnormal morphology
same,induction of differentiation of primed state stem cells,[3]; listed as JQ1(+),None of these agents appeared to induce differentiation
same,induction of differentiation of primed state stem cells,[3]; listed as JQI,not primed stem cell growth
same,effect on growth of SK-OV-3 cells,[4],slight effect
